Source: the NIST ThermoML archive (doi:10.1021/je010317u)
Numbers after ± are expanded uncertainties.

Test: refractive index (Na D-line) (dimensionless)
Conditions: 298.15 K; 101.33 kPa; Liquid; Abbe refractometer

| SMILES | refractive index |
| --- | --- |
| Cc1ccccc1C [1,2-dimethylbenzene] | 1.5018 ± 0.0005 |
| Cc1cccc(C)c1 [1,3-dimethylbenzene] | 1.4943 ± 0.0005 |
| Cc1ccc(C)cc1 [1,4-dimethylbenzene] | 1.4925 ± 0.0005 |
| c1ccccc1 [benzene] | 1.499 ± 0.0004 |
| CCCCCCCCCCCC [dodecane] | 1.4275 ± 0.0005 |
| CCCCCCCCCCCCCCCC [hexadecane] | 1.4325 ± 0.0005 |
| CCCCCC [hexane] | 1.3728 ± 0.0005 |
| Cc1ccccc1 [toluene] | 1.494 ± 0.0004 |
